Results as given in patent publication US7645802B2 (Biovail Laboratories International SRL., priority 2005, dated 2010).

Tested on: Rj: Wistar (Han) rats
Assay: EEG trace monitoring and behavioural observations in conscious rats
Details: rat, in vivo, ip
Experimental: The effects of the two bupropion salt forms hydrochloride and hydrobromide on central nervous system activity after intraperitoneal administration were evaluated by means of EEG trace monitoring in conscious rats. The method which detects electroencephalographic activity in conscious rats follows that described by Dürmüller et al., (2000) Vigilance-Controlled Quantified EEG in Safety Pharmacology, Current Protocols in Pharmacology Unit 10.6. The study was conducted at Porsolt & Partners Pharmacology, Research Laboratory, Z. A. des Suhards—B.P. 9, 53940 Le Genest-Saint-Isle, France.
Substances: The formulation excipient used was physiological saline (Laboratoire Aguettant). […] All substances were stored in a dry, dark, controlled access area and maintained at a controlled ambient temperature of about 20±3° C. The vehicle solutions were stored at about +4° C. The substances were administered in a volume of 5 ml/kg body weight. The doses of bupropion hydrochloride are expressed in mg/kg of salt. […] The substances were dissolved in physiological saline and prepared freshly at each day of experimentation.
Test systems: The rats used were male Rj: Wistar (Han) rats, weighing from about 280 g to 324 g at the time of implantation. They were supplied by Elevage Janvier, 53940 Le Genest-Saint-Isle, France. […] Upon delivery to the laboratory, the animals were housed in groups of 5 animals maximum, in macrolon cages (44×28×19 cm) containing wood litter (Litalabo—SPPS, 95100 Argenteuil, France). The animals had free access to food (Code 113—SAFE, 89290 Augy, France) and tap water. The animal house was maintained under artificial lighting (12 hrs) from 7:00 to 19:00 in a controlled ambient temperature of about 21±3° C. and relative humidity maintained at from about 30% to about 80%. […] Except during the test sessions, the animals had free access to food (Code 113) and tap water. The animals were identified by marking the connector fixed on the animal's head with an indelible pen. Rats were sacrificed at the end of the experiments by lethal injection of pentobarbital (>100 mg/kg i.p.). Animals were not submitted to necropsy. There is no reason to expect that contaminants were present in the feed, water or bedding at levels capable of interfering with the results of the tests. No checks were performed for this particular study.
Electrode implantation procedure: Implantation surgery was carried out under aseptic conditions. Rats, anesthetized with sodium pentobarbital (60 mg/kg i.p., plus supplementary doses of from about 5 mg/kg to about 10 mg/kg to maintain anesthesia until surgery completion) were implanted with 2 surface EEG electrodes, comprised of miniature titanium screws, placed bilaterally over the frontal-parietal cortex and 2 depth electrodes, comprised of twisted platinium-iridium wires, placed stereotaxically into the hippocampus CA3 area (Paxinos and Watson coordinates interaural: AP+5.0 mm, L±2.5 mm, V+7.0 mm). An additional screw, placed over the right occipital cortex, served as ground electrode. The electrodes were connected to small plugs and the whole assembly was secured on the skull with dental acrylate.
Apparatus: For the EEG recording, the animals were placed in rectangular Plexiglas cubicles (30×10×25 cm) mounted on treadmills. Five recording units were run in parallel. A turning commutator was attached above the centre of each cubicle, about 30 cm above walking level. On one side, it was connected via an electrically shielded multicore cable to the animal and on the other side to the signal conditioning system (Coulbourn Model V75-01). The system filters were set for all channels to high pass 1 Hz and low pass 150 Hz, respectively. The amplification levels were kept at from 1000× to 10000×. The EEG signals were acquired and processed on a PC (DELL GX620-2800) installed with a 16 channel 200 kHz/12-bit AD acquisition card (NI PCI-6023E).

## CC(NC(C)(C)C)C(=O)c1cccc(Cl)c1.Cl (racemic) [bupropion hydrochloride, (±)-1-(3-chlorophenyl)-2-[(1,1-dimethylethyl)amino]-1-propanone hydrochloride]
10 mg/kg
  BEHAVIOR Facial clonus: −
  BEHAVIOR Forelimb clonus: −
  BEHAVIOR Head twitches: −
  BEHAVIOR Hyperactivity Sterotypies: −
  BEHAVIOR Rearing: −
  BEHAVIOR Wholebody clonus: −
  EEG ANALYSIS Burst cx: −
  EEG ANALYSIS Burst hipp: −
  EEG ANALYSIS Complex spike cx: −
  EEG ANALYSIS Complex spike hipp: −
  EEG ANALYSIS High amplitude fast frequency cx: −
  EEG ANALYSIS High amplitude fast frequency hipp: −
  EEG ANALYSIS High frequency burst activity hipp: −
  EEG ANALYSIS Long seizure activity cx: −
  EEG ANALYSIS Long seizure activity hipp: −
  EEG ANALYSIS Post ictual activity cx: −
  EEG ANALYSIS Post ictual activity hipp: −
  EEG ANALYSIS Repetitive isolated spike cx: −
  EEG ANALYSIS Repetitive isolated spike hipp: −
  EEG ANALYSIS Sharp waves cx: −
  EEG ANALYSIS Sharp waves hipp: −
  EEG ANALYSIS Short seizure activity cx: −
  EEG ANALYSIS Short seizure activity hipp: −
  EEG ANALYSIS Spike-and-waves cx: −
  EEG ANALYSIS Spike-and-waves hipp: −
30 mg/kg
  BEHAVIOR Facial clonus: −
  BEHAVIOR Forelimb clonus: −
  BEHAVIOR Head twitches: −
  BEHAVIOR Hyperactivity Sterotypies: +
  BEHAVIOR Rearing: −
  BEHAVIOR Wholebody clonus: −
  EEG ANALYSIS Sharp waves cx: −
  EEG ANALYSIS Sharp waves hipp: −
  EEG ANALYSIS Spike-and-waves cx: −
  EEG ANALYSIS Spike-and-waves hipp: −
60 mg/kg
  BEHAVIOR Facial clonus: −
  BEHAVIOR Forelimb clonus: −
  BEHAVIOR Head twitches: −
  BEHAVIOR Hyperactivity Sterotypies: +
  BEHAVIOR Rearing: −
  BEHAVIOR Wholebody clonus: −
  EEG ANALYSIS Sharp waves cx: −
  EEG ANALYSIS Sharp waves hipp: −
  EEG ANALYSIS Spike-and-waves cx: −
  EEG ANALYSIS Spike-and-waves hipp: −
100 mg/kg
  BEHAVIOR Facial clonus: +
  EEG ANALYSIS Spike-and-waves cx: −
  EEG ANALYSIS Spike-and-waves hipp: −
